Measured values reported in ChEMBL document CHEMBL3991601, “The target landscape of clinical kinase drugs” (Science, 2017).
Each block holds one compound with its values, some of them ahead of it. Active and inactive are the calls of the source.

Columns and labels:
[1] = biological target: T1, Tyrosine-protein kinase Mer (Homo sapiens, UniProt Q12866)
T1 sequence (Q12866 whole entry): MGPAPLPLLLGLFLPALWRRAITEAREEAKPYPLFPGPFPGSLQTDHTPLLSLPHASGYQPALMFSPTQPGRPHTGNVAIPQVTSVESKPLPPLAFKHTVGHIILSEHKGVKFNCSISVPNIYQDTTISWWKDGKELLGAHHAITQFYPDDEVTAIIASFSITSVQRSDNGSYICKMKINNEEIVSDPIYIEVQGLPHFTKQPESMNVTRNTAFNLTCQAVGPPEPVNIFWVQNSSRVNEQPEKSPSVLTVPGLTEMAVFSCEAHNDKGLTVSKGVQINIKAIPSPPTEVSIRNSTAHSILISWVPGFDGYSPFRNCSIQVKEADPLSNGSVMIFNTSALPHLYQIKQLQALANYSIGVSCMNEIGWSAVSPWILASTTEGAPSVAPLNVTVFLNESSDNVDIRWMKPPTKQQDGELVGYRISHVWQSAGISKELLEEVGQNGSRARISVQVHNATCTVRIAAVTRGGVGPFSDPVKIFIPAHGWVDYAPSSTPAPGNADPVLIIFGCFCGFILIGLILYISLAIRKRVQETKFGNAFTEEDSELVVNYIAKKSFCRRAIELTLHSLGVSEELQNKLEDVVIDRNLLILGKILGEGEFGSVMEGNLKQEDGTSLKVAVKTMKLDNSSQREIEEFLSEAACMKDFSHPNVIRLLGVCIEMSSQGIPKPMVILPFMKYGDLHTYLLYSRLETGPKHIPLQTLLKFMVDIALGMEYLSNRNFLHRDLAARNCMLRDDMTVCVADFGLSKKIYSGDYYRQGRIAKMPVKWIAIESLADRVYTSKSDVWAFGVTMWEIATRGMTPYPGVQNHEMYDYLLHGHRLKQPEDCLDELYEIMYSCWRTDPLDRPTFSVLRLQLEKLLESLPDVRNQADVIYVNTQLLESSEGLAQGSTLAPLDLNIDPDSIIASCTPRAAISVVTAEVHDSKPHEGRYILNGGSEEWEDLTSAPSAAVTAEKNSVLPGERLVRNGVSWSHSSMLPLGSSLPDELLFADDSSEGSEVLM

Misshapen-like kinase 1 = Misshapen-like kinase 1 (Homo sapiens, UniProt Q8N4C8)
Ephrin type-A receptor 1 = biological target: T2, Ephrin type-A receptor 1 (Homo sapiens, UniProt P21709)
T2 sequence (P21709 whole entry): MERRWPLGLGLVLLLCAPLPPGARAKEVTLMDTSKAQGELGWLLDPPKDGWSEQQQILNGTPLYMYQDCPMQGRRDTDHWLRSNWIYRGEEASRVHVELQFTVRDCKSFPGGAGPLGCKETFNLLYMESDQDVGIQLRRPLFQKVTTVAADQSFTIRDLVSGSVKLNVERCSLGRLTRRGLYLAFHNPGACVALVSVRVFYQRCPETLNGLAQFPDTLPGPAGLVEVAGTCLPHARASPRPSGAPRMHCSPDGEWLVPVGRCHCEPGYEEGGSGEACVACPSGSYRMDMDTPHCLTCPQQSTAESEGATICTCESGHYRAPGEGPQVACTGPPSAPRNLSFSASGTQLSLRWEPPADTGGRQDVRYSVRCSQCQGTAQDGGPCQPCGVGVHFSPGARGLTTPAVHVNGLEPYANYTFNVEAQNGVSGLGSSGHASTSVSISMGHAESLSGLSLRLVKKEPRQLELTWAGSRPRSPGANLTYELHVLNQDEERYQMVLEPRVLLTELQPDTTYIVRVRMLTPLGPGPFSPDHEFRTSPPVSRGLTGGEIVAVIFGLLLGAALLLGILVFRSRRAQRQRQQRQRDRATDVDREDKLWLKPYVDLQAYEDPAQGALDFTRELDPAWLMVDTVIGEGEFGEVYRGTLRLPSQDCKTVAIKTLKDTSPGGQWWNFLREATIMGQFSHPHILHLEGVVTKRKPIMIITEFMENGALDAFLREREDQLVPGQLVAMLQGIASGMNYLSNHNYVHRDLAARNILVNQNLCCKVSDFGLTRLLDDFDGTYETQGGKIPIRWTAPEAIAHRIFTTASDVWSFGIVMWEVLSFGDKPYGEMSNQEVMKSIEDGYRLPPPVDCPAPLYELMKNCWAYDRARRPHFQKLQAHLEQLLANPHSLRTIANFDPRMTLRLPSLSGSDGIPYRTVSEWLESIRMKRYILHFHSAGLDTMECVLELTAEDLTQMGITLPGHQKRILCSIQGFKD

[2] = biological target: Serine/threonine-protein kinase PLK1 (Homo sapiens, UniProt P53350)
[3] = biological target: T3, Dual specificity mitogen-activated protein kinase kinase 4 (Homo sapiens, UniProt P45985)
T3 sequence (P45985 whole entry): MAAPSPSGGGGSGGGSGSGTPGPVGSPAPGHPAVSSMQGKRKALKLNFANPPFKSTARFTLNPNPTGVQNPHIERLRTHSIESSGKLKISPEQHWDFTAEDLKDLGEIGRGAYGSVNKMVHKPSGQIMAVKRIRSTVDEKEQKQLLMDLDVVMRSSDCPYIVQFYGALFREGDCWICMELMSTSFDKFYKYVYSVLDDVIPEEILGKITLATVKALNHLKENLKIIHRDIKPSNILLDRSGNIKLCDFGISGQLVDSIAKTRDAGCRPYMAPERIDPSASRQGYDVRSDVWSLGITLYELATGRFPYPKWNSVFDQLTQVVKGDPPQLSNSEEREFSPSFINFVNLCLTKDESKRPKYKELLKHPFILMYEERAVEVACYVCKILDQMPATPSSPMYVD

[4] = biological target: Tyrosine-protein kinase JAK2 (Homo sapiens, UniProt O60674)
[5] = biological target: Serine/threonine-protein kinase 38-like (Homo sapiens, UniProt Q9Y2H1)
[6] = biological target: Tyrosine-protein kinase Fgr (Homo sapiens, UniProt P09769)
[7] = biological target: Cyclin-dependent kinase 10 (Homo sapiens, UniProt Q15131)
[8] = biological target: Serine/threonine-protein kinase 38 (Homo sapiens, UniProt Q15208)
[9] = biological target: Eukaryotic peptide chain release factor GTP-binding subunit ERF3B (Homo sapiens, UniProt Q8IYD1)
Also: in the data inactive means no Kd found up to 30 µM.

Sequence of Serine/threonine-protein kinase 38 (Q15208 whole entry): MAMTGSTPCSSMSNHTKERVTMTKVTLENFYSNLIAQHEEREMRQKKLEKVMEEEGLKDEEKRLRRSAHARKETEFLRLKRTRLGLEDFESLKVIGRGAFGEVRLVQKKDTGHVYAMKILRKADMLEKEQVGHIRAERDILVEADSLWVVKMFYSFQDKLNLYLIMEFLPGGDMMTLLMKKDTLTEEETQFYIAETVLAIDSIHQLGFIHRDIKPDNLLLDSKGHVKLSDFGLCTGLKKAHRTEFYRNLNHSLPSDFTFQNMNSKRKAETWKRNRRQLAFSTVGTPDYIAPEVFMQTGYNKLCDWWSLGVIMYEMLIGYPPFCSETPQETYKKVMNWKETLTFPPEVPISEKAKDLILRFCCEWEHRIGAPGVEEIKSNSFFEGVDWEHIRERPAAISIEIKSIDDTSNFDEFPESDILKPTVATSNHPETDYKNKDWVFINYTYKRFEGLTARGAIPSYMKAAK
Sequence of Cyclin-dependent kinase 10 (Q15131 whole entry): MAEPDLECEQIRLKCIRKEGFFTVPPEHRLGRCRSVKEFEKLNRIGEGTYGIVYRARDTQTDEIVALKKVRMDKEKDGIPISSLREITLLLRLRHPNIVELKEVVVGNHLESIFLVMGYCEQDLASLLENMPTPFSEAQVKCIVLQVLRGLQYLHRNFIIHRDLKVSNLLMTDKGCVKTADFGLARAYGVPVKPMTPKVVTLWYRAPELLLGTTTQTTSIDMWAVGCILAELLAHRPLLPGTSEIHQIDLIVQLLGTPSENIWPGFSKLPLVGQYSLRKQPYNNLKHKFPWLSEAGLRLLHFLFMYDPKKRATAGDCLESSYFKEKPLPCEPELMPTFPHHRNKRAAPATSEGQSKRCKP
Sequence of Misshapen-like kinase 1 (Q8N4C8 whole entry): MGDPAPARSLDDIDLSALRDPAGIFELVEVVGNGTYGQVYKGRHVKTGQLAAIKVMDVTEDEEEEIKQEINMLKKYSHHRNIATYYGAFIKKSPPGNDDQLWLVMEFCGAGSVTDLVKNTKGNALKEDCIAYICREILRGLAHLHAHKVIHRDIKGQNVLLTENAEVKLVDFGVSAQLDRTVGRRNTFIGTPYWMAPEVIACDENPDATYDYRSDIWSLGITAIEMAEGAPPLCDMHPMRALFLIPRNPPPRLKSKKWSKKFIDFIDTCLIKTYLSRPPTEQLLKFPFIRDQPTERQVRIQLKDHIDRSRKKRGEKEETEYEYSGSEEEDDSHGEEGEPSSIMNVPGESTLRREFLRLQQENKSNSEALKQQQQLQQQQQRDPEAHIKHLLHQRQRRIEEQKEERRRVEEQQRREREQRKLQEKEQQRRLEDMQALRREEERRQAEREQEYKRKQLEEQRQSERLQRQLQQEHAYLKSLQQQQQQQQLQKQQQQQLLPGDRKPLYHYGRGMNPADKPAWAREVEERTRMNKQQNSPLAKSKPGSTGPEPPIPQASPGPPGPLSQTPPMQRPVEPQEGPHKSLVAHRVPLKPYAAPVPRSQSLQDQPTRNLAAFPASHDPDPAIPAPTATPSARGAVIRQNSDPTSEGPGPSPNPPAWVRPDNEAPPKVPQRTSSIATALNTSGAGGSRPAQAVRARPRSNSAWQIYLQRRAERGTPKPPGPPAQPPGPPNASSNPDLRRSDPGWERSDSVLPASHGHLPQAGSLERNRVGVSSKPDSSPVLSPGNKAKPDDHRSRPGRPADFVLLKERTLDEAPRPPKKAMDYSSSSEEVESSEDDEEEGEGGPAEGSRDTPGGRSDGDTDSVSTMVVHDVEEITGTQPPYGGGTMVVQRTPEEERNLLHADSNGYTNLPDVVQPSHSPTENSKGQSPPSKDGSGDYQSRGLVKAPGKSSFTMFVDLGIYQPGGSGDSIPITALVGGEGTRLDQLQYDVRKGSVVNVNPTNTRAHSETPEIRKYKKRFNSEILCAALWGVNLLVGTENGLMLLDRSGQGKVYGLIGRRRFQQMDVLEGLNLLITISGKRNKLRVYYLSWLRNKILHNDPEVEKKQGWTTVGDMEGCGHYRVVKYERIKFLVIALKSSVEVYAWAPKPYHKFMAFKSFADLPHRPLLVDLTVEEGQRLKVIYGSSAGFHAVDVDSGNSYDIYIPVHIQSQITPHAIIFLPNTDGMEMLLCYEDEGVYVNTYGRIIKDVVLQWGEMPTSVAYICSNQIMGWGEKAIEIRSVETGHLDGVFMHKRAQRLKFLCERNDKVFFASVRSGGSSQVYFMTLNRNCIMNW
Sequence of Serine/threonine-protein kinase PLK1 (P53350 whole entry): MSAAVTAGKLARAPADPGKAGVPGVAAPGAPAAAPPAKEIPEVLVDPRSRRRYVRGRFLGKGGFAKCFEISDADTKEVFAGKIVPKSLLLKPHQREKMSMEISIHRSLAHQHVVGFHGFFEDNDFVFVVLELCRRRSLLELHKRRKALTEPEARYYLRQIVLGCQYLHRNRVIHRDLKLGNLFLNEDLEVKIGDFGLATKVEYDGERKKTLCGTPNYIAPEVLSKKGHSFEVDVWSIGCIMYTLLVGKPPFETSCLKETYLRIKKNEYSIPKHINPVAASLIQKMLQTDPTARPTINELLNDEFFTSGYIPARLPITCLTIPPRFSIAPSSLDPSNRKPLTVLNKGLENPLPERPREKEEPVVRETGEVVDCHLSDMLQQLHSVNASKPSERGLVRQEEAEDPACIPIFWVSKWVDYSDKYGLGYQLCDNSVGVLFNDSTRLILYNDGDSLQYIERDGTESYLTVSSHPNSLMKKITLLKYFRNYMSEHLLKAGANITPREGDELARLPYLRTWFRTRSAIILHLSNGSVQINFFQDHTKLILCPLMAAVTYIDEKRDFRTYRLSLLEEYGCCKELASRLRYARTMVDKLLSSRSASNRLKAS
Sequence of Tyrosine-protein kinase Fgr (P09769 whole entry): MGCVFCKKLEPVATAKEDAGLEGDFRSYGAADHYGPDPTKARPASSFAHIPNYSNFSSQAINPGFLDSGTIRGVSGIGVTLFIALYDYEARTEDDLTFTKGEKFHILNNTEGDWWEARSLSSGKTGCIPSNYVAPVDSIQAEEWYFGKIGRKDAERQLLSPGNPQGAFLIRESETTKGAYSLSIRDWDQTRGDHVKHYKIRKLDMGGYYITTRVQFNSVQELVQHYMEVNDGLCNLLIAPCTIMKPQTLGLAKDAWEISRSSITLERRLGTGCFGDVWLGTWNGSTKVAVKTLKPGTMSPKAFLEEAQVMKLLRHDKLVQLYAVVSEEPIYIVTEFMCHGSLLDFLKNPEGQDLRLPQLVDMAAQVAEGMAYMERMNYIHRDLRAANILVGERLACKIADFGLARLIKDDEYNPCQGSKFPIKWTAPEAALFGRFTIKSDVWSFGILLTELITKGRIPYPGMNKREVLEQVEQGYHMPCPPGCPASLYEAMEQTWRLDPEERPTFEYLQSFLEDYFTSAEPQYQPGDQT
Sequence of Eukaryotic peptide chain release factor GTP-binding subunit ERF3B (Q8IYD1 whole entry): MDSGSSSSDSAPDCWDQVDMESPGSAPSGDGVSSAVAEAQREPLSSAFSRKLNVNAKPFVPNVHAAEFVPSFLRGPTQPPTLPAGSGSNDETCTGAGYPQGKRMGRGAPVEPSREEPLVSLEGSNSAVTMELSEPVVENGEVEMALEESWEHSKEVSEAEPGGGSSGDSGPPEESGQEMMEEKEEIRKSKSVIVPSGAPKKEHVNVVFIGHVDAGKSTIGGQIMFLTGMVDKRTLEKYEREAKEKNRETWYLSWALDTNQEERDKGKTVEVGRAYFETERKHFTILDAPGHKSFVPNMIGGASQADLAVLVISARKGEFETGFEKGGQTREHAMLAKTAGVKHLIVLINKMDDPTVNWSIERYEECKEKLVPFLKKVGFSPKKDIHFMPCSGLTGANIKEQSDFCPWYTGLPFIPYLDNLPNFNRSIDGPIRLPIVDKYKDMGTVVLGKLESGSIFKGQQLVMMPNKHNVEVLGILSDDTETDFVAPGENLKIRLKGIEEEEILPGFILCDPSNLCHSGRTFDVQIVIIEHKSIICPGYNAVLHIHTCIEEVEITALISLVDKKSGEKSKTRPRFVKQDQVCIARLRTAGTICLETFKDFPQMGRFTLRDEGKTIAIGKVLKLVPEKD
Sequence of Serine/threonine-protein kinase 38-like (Q9Y2H1 whole entry): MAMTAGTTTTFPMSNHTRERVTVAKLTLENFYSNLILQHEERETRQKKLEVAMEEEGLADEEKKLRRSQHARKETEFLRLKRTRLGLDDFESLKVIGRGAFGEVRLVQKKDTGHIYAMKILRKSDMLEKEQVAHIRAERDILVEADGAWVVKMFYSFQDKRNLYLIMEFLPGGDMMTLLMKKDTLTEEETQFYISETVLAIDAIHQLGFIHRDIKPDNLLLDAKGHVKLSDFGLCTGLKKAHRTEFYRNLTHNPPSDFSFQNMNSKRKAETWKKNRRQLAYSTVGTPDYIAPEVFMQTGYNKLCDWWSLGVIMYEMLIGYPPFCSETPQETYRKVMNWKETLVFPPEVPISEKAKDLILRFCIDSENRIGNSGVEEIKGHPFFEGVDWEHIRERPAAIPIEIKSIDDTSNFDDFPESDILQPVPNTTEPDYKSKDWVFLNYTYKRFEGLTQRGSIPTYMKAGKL

SMILES: CCN(CCCOc1ccc2c(Nc3cc(CC(=O)Nc4cccc(F)c4)n[nH]3)ncnc2c1)CCOP(=O)(O)O [BARASERTIB]
Kd [1]: > 30 µM (inactive) | Kd (Misshapen-like kinase 1): > 30 µM (inactive) | Kd (Ephrin type-A receptor 1): > 30 µM (inactive)

SMILES: COc1cc(Nc2ncc(F)c(Nc3ccc4c(n3)N(COP(=O)(O)O)C(=O)C(C)(C)O4)n2)cc(OC)c1OC [FOSTAMATINIB]
Kd [2]: > 30 µM (inactive) | Kd [3]: > 30 µM (inactive) | Kd [4]: > 30 µM (inactive) | Kd [5]: > 30 µM (inactive) | Kd (Ephrin type-A receptor 1): > 30 µM (inactive)

SMILES: COc1ccc(-c2ccc3ncc4c(c3c2)n(-c2ccc(N3CCNCC3)c(C(F)(F)F)c2)c(=O)n4C)cn1 [BGT-226 FREE BASE]
Kd [6]: > 30 µM (inactive) | Kd [2]: > 30 µM (inactive) | Kd (Misshapen-like kinase 1): > 30 µM (inactive) | Kd (Ephrin type-A receptor 1): > 30 µM (inactive)

SMILES: S=C(NCc1ccc2c(c1)OCO2)N1CCN(c2ncnc3c2oc2ccccc23)CC1 [AMUVATINIB]
Kd [1]: > 30 µM (inactive) | Kd [2]: > 30 µM (inactive) | Kd [3]: > 30 µM (inactive) | Kd (Misshapen-like kinase 1): > 30 µM (inactive) | Kd [7]: > 30 µM (inactive)

SMILES: CCN1CCN(Cc2ccc(Nc3ncc(F)c(-c4cc(F)c5nc(C)n(C(C)C)c5c4)n3)nc2)CC1 [ABEMACICLIB]
Kd (Ephrin type-A receptor 1): > 30 µM (inactive)

SMILES: COc1cc(F)c(F)c(Nc2ccc(I)cc2F)c1NS(=O)(=O)C1(C[C@H](O)CO)CC1 [REFAMETINIB]
Kd [8]: > 30 µM (inactive) | Kd (Misshapen-like kinase 1): > 30 µM (inactive) | Kd [5]: > 30 µM (inactive) | Kd (Ephrin type-A receptor 1): > 30 µM (inactive)

SMILES: O=c1[nH]c([C@@H]2CCCN2)nc2c1oc1ccc(Cl)cc12
Kd [8]: > 30 µM (inactive) | Kd [5]: > 30 µM (inactive) | Kd (Ephrin type-A receptor 1): > 30 µM (inactive)

SMILES: CC(C)CC(=O)Nc1[nH]nc2c1CN(C(=O)C1CCN(C)CC1)C2(C)C [PHA-793887]
Kd [6]: > 30 µM (inactive) | Kd [2]: > 30 µM (inactive) | Kd (Ephrin type-A receptor 1): > 30 µM (inactive)

SMILES: O=C(O)c1ccc2c(c1)nc(Nc1cccc(Cl)c1)c1ccncc12 [SILMITASERTIB]
Kd [2]: 0.672 µM (active) | Kd (Misshapen-like kinase 1): > 30 µM (inactive) | Kd [5]: > 30 µM (inactive)

SMILES: CC[C@@](C)(Nc1ccnc(-c2c[nH]c3ncccc23)n1)C(=O)NCC(F)(F)F [DECERNOTINIB]
Kd [8]: > 30 µM (inactive) | Kd (Ephrin type-A receptor 1): > 30 µM (inactive)

SMILES: Cc1c(NC(=O)OC[C@@H]2COCCN2)cn2ncnc(Nc3ccc4c(cnn4Cc4cccc(F)c4)c3)c12 [AC-480]
Kd [2]: > 30 µM (inactive) | Kd (Ephrin type-A receptor 1): > 30 µM (inactive)

SMILES: CC1(C)CNc2cc(NC(=O)c3cccnc3NCc3ccncc3)ccc21 [MOTESANIB]
Kd [9]: 0.003 µM | Kd [7]: > 30 µM (inactive)

SMILES: COCCN1CCN(Cc2ccc(-c3n[nH]c4c3C(=O)c3c(NC(=O)NN5CCOCC5)cccc3-4)cc2)CC1 [RGB-286638]
Kd [1]: > 30 µM (inactive) | Kd (Ephrin type-A receptor 1): > 30 µM (inactive)

SMILES: C[C@]1(O)C[C@@H](c2nc(-c3ccc4ccc(-c5ccccc5)nc4c3)c3c(N)nccn32)C1 [LINSITINIB]
Kd [1]: > 30 µM (inactive) | Kd [3]: > 30 µM (inactive) | Kd (Misshapen-like kinase 1): > 30 µM (inactive) | Kd [7]: > 30 µM (inactive)

SMILES: COc1cc2ncnc(Nc3ccc(F)c(Cl)c3)c2cc1NC(=O)/C=C/CN1CCCCC1 [DACOMITINIB ANHYDROUS]
Kd [3]: > 30 µM (inactive) | Kd [5]: > 30 µM (inactive)

SMILES: O=S(=O)(c1cccc2cnccc12)N1CCCNCC1 [FASUDIL]
Kd [6]: > 30 µM (inactive) | Kd [9]: > 30 µM (inactive) | Kd (Ephrin type-A receptor 1): > 30 µM (inactive)

SMILES: CN(c1ncccc1CNc1nc(Nc2ccc3c(c2)CC(=O)N3)ncc1C(F)(F)F)S(C)(=O)=O [PF-00562271]
Kd (Ephrin type-A receptor 1): > 30 µM (inactive) | Kd [7]: > 30 µM (inactive)

SMILES: NC[C@@](O)(c1ccc(Cl)cc1)c1ccc(-c2cn[nH]c2)cc1 [AT-13148]
Kd [6]: > 30 µM (inactive) | Kd [9]: > 30 µM (inactive) | Kd [8]: > 30 µM (inactive) | Kd (Misshapen-like kinase 1): > 30 µM (inactive)

SMILES: C=CCN(/C=C1/C(=O)O[C@H](COC)[C@@]2(C)C1=C(O)C(=O)C1=C2[C@H](OC(C)=O)C[C@]2(C)C(=O)CC[C@@H]12)CC=C [SONOLISIB]
Kd (Ephrin type-A receptor 1): > 30 µM (inactive)

SMILES: CCc1nc(C(N)=O)c(Nc2ccc(N3CCC(N4CCN(C)CC4)CC3)c(OC)c2)nc1NC1CCOCC1 [GILTERITINIB]
Kd [8]: > 30 µM (inactive) | Kd (Ephrin type-A receptor 1): > 30 µM (inactive)

SMILES: Cc1ccc(C(=O)Nc2ccc(Oc3cc4cnn(C)c4cc3-c3cn[nH]c3)c(F)c2)c(=O)n1-c1ccc(F)cc1 [MERESTINIB]
Kd [2]: > 30 µM (inactive) | Kd [3]: > 30 µM (inactive) | Kd (Misshapen-like kinase 1): > 30 µM (inactive) | Kd [5]: > 30 µM (inactive) | Kd (Ephrin type-A receptor 1): > 30 µM (inactive) | Kd [7]: > 30 µM (inactive)

SMILES: Cn1c(=O)n(-c2ccc(C(C)(C)C#N)cc2)c2c3cc(-c4cnc5ccccc5c4)ccc3ncc21 [DACTOLISIB]
Kd [9]: > 30 µM (inactive) | Kd [8]: > 30 µM (inactive) | Kd (Misshapen-like kinase 1): > 30 µM (inactive) | Kd [5]: > 30 µM (inactive) | Kd (Ephrin type-A receptor 1): > 30 µM (inactive)

SMILES: C=CC(=O)Nc1cc(Nc2nccc(-c3cn(C)c4ccccc34)n2)c(OC)cc1N(C)CCN(C)C [OSIMERTINIB]
Kd [9]: > 30 µM (inactive) | Kd [8]: > 30 µM (inactive) | Kd (Misshapen-like kinase 1): > 30 µM (inactive) | Kd (Ephrin type-A receptor 1): > 30 µM (inactive)

SMILES: Cc1cc(-c2cc(OC(=O)c3ccccc3)ccc2Cl)cc2nnc(Nc3ccc(OCCN4CCCC4)cc3)nc12 [TG100-801]
Kd [3]: > 30 µM (inactive) | Kd [4]: > 30 µM (inactive) | Kd [5]: > 30 µM (inactive) | Kd [7]: > 30 µM (inactive)

SMILES: CN(C)C/C=C/C(=O)Nc1cc2c(Nc3ccc(F)c(Cl)c3)ncnc2cc1O[C@H]1CCOC1 [AFATINIB]
Kd [9]: > 30 µM (inactive)

Continued, values first:

Kd [8]: > 30 µM (inactive) | Kd (Ephrin type-A receptor 1): > 30 µM (inactive)
SMILES: COc1cc2ncnc3c2cc1OCCCCCN(C)Cc1ccc(Br)cc1N3 [JNJ-26483327]

Kd [3]: > 30 µM (inactive) | Kd [5]: > 30 µM (inactive) | Kd (Ephrin type-A receptor 1): > 30 µM (inactive)
SMILES: COc1cccc(Nc2ncnn3ccc(CN4CC[C@@H](N)[C@H](O)C4)c23)c1 [BMS-690514]

Kd (Misshapen-like kinase 1): > 30 µM (inactive) | Kd [5]: > 30 µM (inactive)
SMILES: CCOc1ccn(-c2ccc(F)cc2)c(=O)c1C(=O)Nc1ccc(Oc2ccnc(N)c2Cl)c(F)c1 [BMS-777607]

Kd [9]: > 30 µM (inactive)
SMILES: COc1cccc2cc(-c3nc([C@H]4CC[C@H](C(=O)O)CC4)n4ncnc(N)c34)[nH]c12 [OSI-027]

Kd [2]: > 30 µM (inactive) | Kd (Ephrin type-A receptor 1): > 30 µM (inactive)
SMILES: Cc1cc(C(=O)Nc2cc(Oc3ccc4nc(NC(=O)C5CC5)cn4n3)ccc2C)n(C)n1 [TAK-593]
